Laboratory results as given in patent publication US20230051589A1, “COMPOUNDS AND COMPOSITIONS FOR TREATING CONDITIONS ASSOCIATED WITH NLRP ACTIVITY” (Novartis AG, priority 2018, published 2023).

Test system: IL-1β production in PMA-differentiated THP-1 cells
Test: IL-1β production in PMA-differentiated THP-1 cells stimulated with gramicidin (hTHP-1 assay, 2% fetal bovine serum; Procedures 1-3)
Type: cell-based, human
Conditions: Homo sapiens, THP-1, hTHP-1 assay containing 2% fetal bovine serum, Table B2, class symbols; read-out: IC50
Summary of the method: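 IL-1β released into supernatants was read by HTRF after 2 h gramicidin (5 μM) challenge. Before challenge, compounds (3-fold dilutions, top 100 μM, 0.37% DMSO) were given 1 h on THP-1 cells differentiated with PMA (20 ng/ml, 16-18 h) and held in 2% FBS medium.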

Compound | IC50
CNCc1ccc(S(N)(=O)=NC(=O)Nc2c3c(cc4c2CC4)CCC3)cc1 (stereo not drawn) [Example 448, 4-((Methylamino)methyl)-N′-((2,4,5,6-tetrahydro-1H-cyclobuta[f]inden-3-yl)carbamoyl)benzenesulfonimidamide] | 1000 to 5000 nM
CN(C)Cc1ccc(S(N)(=O)=NC(=O)Nc2c3c(cc4c2CC4)CC3)cc1 (stereo not drawn) [Example 449, 4-((Dimethylamino)methyl)-N′-(tricyclo[6.2.0.03,6]deca-1,3(6),7-trien-2-ylcarbamoyl)benzenesulfonimidamide] | 1000 to 5000 nM
C=CCc1c2c(c(NC(=O)N=S(N)(=O)c3cc(C(C)(C)O)n(-c4ccccc4)n3)c3c1CCC3)CCC2 (stereo not drawn) [Example 458, N′-((8-allyl-1,2,3,5,6,7-hexahydro-s-indacen-4-yl)carbamoyl)-5-(2-hydroxypropan-2-yl)-1-phenyl-1H-pyrazole-3-sulfonimidamide] | 1000 to 5000 nM
C/C=C/c1c2c(c(NC(=O)N=S(N)(=O)c3cc(C(C)(C)O)n(-c4ccccc4)n3)c3c1CCC3)CCC2 (stereo not drawn) [Example 459, (E)-5-(2-hydroxypropan-2-yl)-1-phenyl-N′-((8-(prop-1-en-1-yl)-1,2,3,5,6,7-hexahydro-s-indacen-4-yl)carbamoyl)-1H-pyrazole-3-sulfonimidamide] | 1000 to 5000 nM
NS(=O)(=NC(=O)Nc1c2c(cc3c1CCC3)CCC2)c1ccc(CN2CCC2)cc1F (stereo not drawn) [Example 462, 4-(azetidin-1-ylmethyl)-2-fluoro-N′-((1,2,3,5,6,7-hexahydro-s-indacen-4-yl)carbamoyl)benzenesulfonimidamide] | 1000 to 5000 nM
NS(=O)(=NC(=O)Nc1c2c(cc3c1CC3)CCC2)c1ccc(CN2CCC2)cc1F (stereo not drawn) [Example 463, 4-(azetidin-1-ylmethyl)-2-fluoro-N′-((2,4,5,6-tetrahydro-1H-cyclobuta[f]inden-3-yl)carbamoyl)benzenesulfonimidamide] | 1000 to 5000 nM
CC(C)(O)c1ccc(S(N)(=O)=NC(=O)Nc2cc3c(c4c2CCC4)CCC3)cn1 (stereo not drawn) [Example 464, N′-((1,2,3,6,7,8-hexahydro-as-indacen-4-yl)carbamoyl)-6-(2-hydroxypropan-2-yl)pyridine-3-sulfonimidamide] | 1000 to 5000 nM

Continued, values first:

IC50 | Compound
200 to 1000 nM | CC(C)n1nc(S(N)(=O)=NC(=O)Nc2c3c(c(C#N)c4c2CCC4)CCC3)cc1CO (stereo not drawn) [Example 442, N′-((8-cyano-1,2,3,5,6,7-hexahydro-s-indacen-4-yl)carbamoyl)-5-(hydroxymethyl)-1-isopropyl-1H-pyrazole-3-sulfonimidamide]
1000 to 5000 nM | NS(=O)(=NC(=O)Nc1c2c(cc3c1CCC3)CCC2)c1ccc(C2CCN2)cc1 (stereo not drawn) [Example 444, 4-(Azetidin-2-yl)-N′-((1,2,3,5,6,7-hexahydro-s-indacen-4-yl)carbamoyl)benzenesulfonimidamide]
40 to 200 nM | CN[C@H]1COc2c(S(N)(=O)=NC(=O)Nc3c4c(cc5c3CCC5)CCC4)cnn2C1 (stereo partly drawn) [Example 445, (6R)-N′-((1,2,3,5,6,7-hexahydro-s-indacen-4-yl)carbamoyl)-6-(methylamino)-6,7-dihydro-5H-pyrazolo[5,1-b][3]oxazine-3-sulfonimidamide]
200 to 1000 nM | CN(C)Cc1ccc(S(N)(=O)=NC(=O)Nc2c3c(cc4c2CC4)CCC3)cc1 (stereo not drawn) [Example 446, 4-((Dimethylamino)methyl)-N′-(2,4,5,6-tetrahydro-1H-cyclobuta[f]inden-3-ylcarbamoyl)benzenesulfonimidamide]
40 to 200 nM | CC(C)(O)c1ncc(S(N)(=O)=NC(=O)Nc2c3c(c(Cl)c4c2CCC4)CCC3)s1 (stereo not drawn) [Example 450, N′-((8-chloro-1,2,3,5,6,7-hexahydro-s-indacen-4-yl)carbamoyl)-2-(2-hydroxypropan-2-yl)thiazole-5-sulfonimidamide]
200 to 1000 nM | CNC(C)(C)c1ccc(S(N)(=O)=NC(=O)Nc2c3c(cc4c2CCC4)CCC3)c(F)c1 (stereo not drawn) [Example 451, 2-Fluoro-N′-(1,2,3,5,6,7-hexahydros-indacen-4-ylcarbamoyl)-4-(2-(methylamino)propan-2-yl)benzenesulfonimidamideonimidamide]
40 to 200 nM | NS(=O)(=NC(=O)Nc1c2c(cc3c1CCC3)CCC2)c1cnc(C(O)(CO)CO)s1 (stereo not drawn) [Example 460, N′-((1,2,3,5,6,7-hexahydro-s-indacen-4-yl)carbamoyl)-2-(1,2,3-trihydroxypropan-2-yl) thiazole-5-sulfonimidamide]
200 to 1000 nM | CC(C)(O)c1cncc(S(N)(=O)=NC(=O)Nc2c3c(c(C#N)c4c2CCC4)CCC3)c1 (stereo not drawn) [Example 461, N′-((8-cyano-1,2,3,5,6,7-hexahydro-s-indacen-4-yl)carbamoyl)-5-(2-hydroxypropan-2-yl)pyridine-3-sulfomidamide]
40 to 200 nM | Cc1c(C2CC2)cc2c(c1NC(=O)N=S(N)(=O)c1cc(C(C)(C)O)cs1)CCC2 (stereo not drawn) [Example 465, N′-((6-cyclopropyl-5-methyl-2,3-dihydro-1H-inden-4-yl)carbamoyl)-4-(2-hydroxypropan-2-yl)thiophene-2-sulfonimidamide]
200 to 1000 nM | CC(C)(O)c1csc(S(N)(=O)=NC(=O)Nc2c3c(cc4c2C(=O)CC4)CCC3)c1 (stereo not drawn) [Example 466, 4-(2-Hydroxypropan-2-yl)-N′-((3-oxo-1,2,3,5,6,7-hexahydro-s-indacen-4-yl)carbamoyl)thiophene-2-sulfonimidamide]
40 to 200 nM | CC(C)(O)c1csc(S(N)(=O)=NC(=O)Nc2c3c(cc4c2CC4)CCC3)c1 (stereo not drawn) [Example 467, 4-(2-Hydroxypropan-2-yl)-N′-((2,4,5,6-tetrahydro-1H-cyclobuta[f]inden-3-yl)carbamoyl)thiophene-2-sulfonimidamide]

Same assay, conditions: hTHP-1 assay containing 2% fetal bovine serum, Table B2, class symbols; read-out: IC50

IC50 | Compound
40 to 200 nM | CC(O)(CO)c1cc(F)c(S(N)(=O)=NC(=O)Nc2c3c(c(C#N)c4c2CCC4)CCC3)s1 (stereo not drawn) [Example 443, N′-((8-cyano-1,2,3,5,6,7-hexahydro-s-indacen-4-yl)carbamoyl)-5-(1,2-dihydroxypropan-2-yl)-3-fluorothiophene-2-sulfonimidamide]
1000 to 5000 nM | NS(=O)(=NC(=O)Nc1c2c(cc3c1CCC3)CCC2)c1ccc(C2CCCN2)cc1 (stereo not drawn) [Example 447, N′-((1,2,3,5,6,7-hexahydro-s-indacen-4-yl)carbamoyl)-4-(pyrrolidin-2-yl)benzenesulfonimidamide]
200 to 1000 nM | COCc1nc(C(C)(C)O)sc1S(N)(=O)=NC(=O)Nc1c2c(c(C#N)c3c1CCC3)CCC2 (stereo not drawn) [Example 454, N′-((8-cyano-1,2,3,5,6,7-hexahydro-s-indacen-4-yl)carbamoyl)-2-(2-hydroxypropan-2-yl)-4-(methoxymethyl)thiazole-5-sulfonimidamide]
1000 to 5000 nM | CC(C)(O)c1cnc(S(N)(=O)=NC(=O)Nc2c3c(cc4c2CCC4=O)CCC3)s1 (stereo not drawn) [Example 455, 5-(2-Hydroxypropan-2-yl)-N′-((1-oxo-1,2,3,5,6,7-hexahydro-s-indacen-4-yl)carbamoyl)thiazole-2-sulfonimidamide]
200 to 1000 nM | CC(C)(O)c1ccnc(S(N)(=O)=NC(=O)Nc2c3c(c(C#N)c4c2CCC4)CCC3)c1 (stereo not drawn) [Example 456, N′-((8-cyano-1,2,3,5,6,7-hexahydro-s-indacen-4-yl)carbamoyl)-4-(2-hydroxypropan-2-yl)pyridine-2-sulfonimidamide]
200 to 1000 nM | COc1ccc(Cn2nc(S(N)(=O)=NC(=O)Nc3c4c(cc5c3CCC5)CCC4)cc2C(C)(C)O)cc1 (stereo not drawn) [Example 457, N′-((1,2,3,5,6,7-hexahydro-s-indacen-4-yl)carbamoyl)-5-(2-hydroxypropan-2-yl)-1-(4-methoxybenzyl)-1H-pyrazole-3-sulfonimidamide]
